How the values were obtained:
[1] = hypoxic challenge test (12% oxygen, SpO2 by pulse oximeter); type: in vivo, human
Description: The hypoxic challenge test was conducted it the following manner: using face masks and air tanks containing 12% oxygen (compared to 21% oxygen in normal air at sea level), subjects inhaled the 12% hypoxic mixture for 5 minutes at a time just prior to starting the dose of study medication (5-HMF or placebo, double-blind) and then again at each of the time intervals 0.75, 2, 4 and 8 hours after the dose. A finger tip oxygen sensing probe connected to a pulse oximeter provided continuous measurement of SpO2 values (percentage of hemoglobin containing at least one oxygen molecule) and the SpO2 values were recorded every 20 seconds during the hypoxic challenge and during a 3-minute recovery period (during which normal air was inspired). The hypoxia challenge was aborted if SpO2 values fell to less than 85%. FIG. 1 illustrates the effect of 5-HMF during a hypoxic challenge. The data compares the fall in mean SpO2 values of placebo and the 2000 mg dose of 5-HMF prior to a hypoxic challenge given at the 2 hour time point post-dose. The mean change in SpO2 levels from start is shown for each one-minute interval of the 5-minute hypoxic challenge. […] It is noteworthy that the difference between placebo and drug becomes greater as the level of hypoxia in the placebo subjects increases. […] Since the level of hypoxic challenge in this initial human study was moderate (no clinical symptoms of hypoxia were present), the impact of 5-HMF should be even greater when the hypoxic challenge is more extreme.
An illustration of the dose-dependent ability of 5-HMF to impact blood oxygenation during a hypoxic challenge is shown in FIG. 2. Because there are appreciable inter-individual differences in the magnitude of the decline of SpO2 in response to a hypoxic challenge, each subject (both placebo and 5-HMF) was tested for the decline in SpO2 at the 5 minute time point for both (i) the challenge given prior to the dose of placebo or 5-HMF and (ii) the challenge given 2 hours after the dose of placebo or 5-HMF. The dotted line in FIG. 2 represents the “baseline” amount of decline occurring during the challenge given prior to dosing placebo or 5-HMF. The results of the decline in SpO2 for each subject at the end the challenge given 2 hours post-dose results were compared to the subject's baseline amount. Thus each subject acted as his/her own control. The blue dots represent individual subject scores and the horizontal black line is the mean SpO2 change relative to the pre-dose hypoxic challenge.

[2] = human, single doses of 300 mg, 1000 mg, 2000 mg and 4000 mg (n=6 per dose)
Description: The study was a double-blind, placebo (n=8) controlled single ascending dose (SAD) trial examining 5-HMF doses of 300 mg, 1000 mg, 2000 mg and 4000 mg (n=6 per dose).

[3] = tested on: mice; details: simulated altitude of 9,500 meters; cited from earlier work
[4] = tested on: sickle cell disease mouse model; details: cited from earlier work
[5] = animals

O=Cc1ccc(CO)o1 [5-HMF, 5-hydroxymethyl-2-furfural]
effect on blood oxygen saturation during hypoxia challenge compared to placebo ([1]; 300 mg dose, 2 hours post-dose): small
mean change in ending SpO2 levels relative to the pre-dose hypoxic challenge ([1]; 1000 mg dose, 2 hours post-dose, 5 minute time point of challenge): approximately 2.5 unit
fall in mean SpO2 after one minute of inhalation of hypoxic air ([1]; 2000 mg dose, challenge at 2 hour post-dose, 12% oxygen): 5 units
effect on SpO2 during hypoxic challenge relative to placebo ([1]; 2000 mg dose, challenge at 2 hour post-dose, from one minute on for the remainder of the 5-minute challenge): less severe decrease in SpO2 during the hypoxic challenge
effect on blood oxygen saturation during hypoxia challenge compared to placebo ([1]; all dose levels (300-4000 mg), 2 hours post-dose): increased the blood oxygen saturation of the test subjects compared to placebo at all dose levels
difference from placebo of the most active dose levels ([1]; top three doses (1000, 2000, 4000 mg), p=0.0498): statistically significant
safety and tolerability [2]: safe and well tolerated
survival under hypobaric hypoxia [3]: increase survival of mice
P50 of SCD Hb [4]: lower P50 (left shift)
protection against lethal effects of hypoxia [4]: provides in vivo protection against the lethal effects of hypoxia
safety window suggested by repeat dose animal toxicology and safety data [5]: wide safety window in humans is likely

— patent US9918958B2, “Treatment for hypoxia” (priority 2011, dated 2018)
